Reference: the NIST ThermoML archive (doi:10.1021/je700339f)
Numbers after ± are expanded uncertainties.

Assay: xn = mol fraction of the nth substance listed
Conditions: 298 K, Liquid

ClCCCCCCCl [1,6-dichlorohexane] + CN(C)C=O
mass density [kg/m3]
Conditions	x2 = 0.0986	x2 = 0.2013	x2 = 0.3197	x2 = 0.4014	x2 = 0.5033	x2 = 0.6037	x2 = 0.7034	x2 = 0.8019	x2 = 0.9008
10000 kPa	–	–	–	–	1025.7 ± 3.1	1013.9 ± 3.2	1000.8 ± 3.5	986.4 ± 3.8	969.8 ± 4
10400 kPa	–	–	–	–	–	–	–	986.7 ± 3.8	969.9 ± 4
10500 kPa	1063.5 ± 2.8	1055.8 ± 2.8	1045.3 ± 2.9	1037.2 ± 3	1026 ± 3.1	1014.2 ± 3.2	1001.1 ± 3.4	–	–
10900 kPa	1063.8 ± 2.8	–	–	–	–	–	–	987 ± 3.8	–
11000 kPa	–	1056.1 ± 2.8	1045.5 ± 2.9	1037.5 ± 3	1026.4 ± 3.1	1014.5 ± 3.3	1001.4 ± 3.4	–	970.3 ± 4
11400 kPa	–	–	1045.8 ± 2.9	–	–	1014.8 ± 3.2	–	–	–
11500 kPa	1064.2 ± 2.8	1056.4 ± 2.8	–	1037.8 ± 3	1026.7 ± 3.1	–	1001.8 ± 3.5	987.4 ± 3.8	970.5 ± 4
11900 kPa	–	–	–	–	–	1015.1 ± 3.3	–	–	–
12000 kPa	1064.5 ± 2.8	1056.8 ± 2.8	1046.2 ± 2.9	1038.2 ± 3	1027 ± 3.1	–	1002 ± 3.5	987.6 ± 3.8	970.8 ± 4
12400 kPa	–	–	–	–	–	1015.4 ± 3.3	–	–	971.1 ± 4
12500 kPa	1064.9 ± 2.8	1057.1 ± 2.8	1046.5 ± 2.9	1038.4 ± 3	1027.3 ± 3.1	–	1002.4 ± 3.5	988 ± 3.8	–
12900 kPa	1065.2 ± 2.8	–	–	1038.8 ± 3	–	–	–	–	–
13000 kPa	–	1057.4 ± 2.8	1046.8 ± 2.9	–	1027.6 ± 3.1	1016 ± 3.3	1002.7 ± 3.5	988.2 ± 3.8	971.3 ± 4
13500 kPa	1065.5 ± 2.8	1057.8 ± 2.8	1047.2 ± 2.9	1039.2 ± 3	1028 ± 3.1	1016.3 ± 3.3	1003 ± 3.5	988.6 ± 3.8	971.6 ± 4
13900 kPa	–	–	–	1039.5 ± 3	–	–	–	–	–
14000 kPa	1065.8 ± 2.8	1058.1 ± 2.8	1047.5 ± 2.9	–	1028.3 ± 3.1	1016.6 ± 3.3	1003.3 ± 3.5	989 ± 3.8	971.9 ± 4
14400 kPa	–	–	–	–	–	1016.8 ± 3.3	–	–	–
14500 kPa	–	1058.4 ± 2.8	1047.8 ± 2.9	1039.8 ± 3	1028.6 ± 3.1	–	1003.5 ± 3.5	989.2 ± 3.8	972.2 ± 4
14600 kPa	1066.2 ± 2.8	–	–	–	–	–	–	–	–
15000 kPa	1066.5 ± 2.8	1058.7 ± 2.8	1048.2 ± 2.9	1040 ± 3	1028.9 ± 3.1	1017.3 ± 3.3	1003.9 ± 3.5	989.5 ± 3.8	972.6 ± 4
15400 kPa	–	–	–	–	1029.2 ± 3.1	1017.6 ± 3.3	–	–	–
15500 kPa	1066.9 ± 2.8	1059 ± 2.8	1048.6 ± 2.9	1040.4 ± 3	–	–	1004.2 ± 3.5	989.8 ± 3.8	972.8 ± 4
15900 kPa	–	1059.3 ± 2.8	–	1040.7 ± 3	–	–	–	990.1 ± 3.8	–
16000 kPa	1067.1 ± 3.2	–	1048.8 ± 2.9	–	1029.6 ± 3.1	1018 ± 3.3	1004.5 ± 3.5	–	973.1 ± 2.8
16400 kPa	–	1059.6 ± 2.9	–	1041 ± 3	–	–	–	–	–
16500 kPa	1067.4 ± 3.2	–	1049 ± 2.9	–	1030 ± 3.1	1018.2 ± 3.3	1004.8 ± 3.5	990.4 ± 3.8	973.4 ± 4
17000 kPa	1067.8 ± 2.8	1060 ± 2.9	1049.4 ± 2.9	1041.4 ± 3	1030.3 ± 3.1	1018.5 ± 3.3	1005.1 ± 3.5	990.7 ± 3.8	973.7 ± 4
17500 kPa	1068.2 ± 2.8	1060.3 ± 2.9	1049.7 ± 2.9	1041.7 ± 3	1030.5 ± 3.1	1018.8 ± 3.3	1005.4 ± 3.5	990.9 ± 3.8	974 ± 4
17900 kPa	–	–	1050 ± 2.9	–	–	–	–	991.2 ± 3.8	–
18000 kPa	1068.5 ± 2.9	1060.6 ± 2.9	–	1042 ± 3	1030.9 ± 3.1	1019.1 ± 3.3	1005.6 ± 3.5	–	974.3 ± 2.8
18500 kPa	1068.8 ± 2.9	1060.9 ± 2.9	1050.3 ± 2.9	1042.3 ± 3	1031.2 ± 3.1	1019.4 ± 3.3	1005.9 ± 3.5	991.5 ± 3.8	974.7 ± 4
19000 kPa	1069.2 ± 2.9	1061.2 ± 2.9	1050.7 ± 2.9	1042.6 ± 3	1031.5 ± 3.1	1019.8 ± 3.3	1006.3 ± 3.5	991.9 ± 3.8	975.1 ± 4
19400 kPa	–	1061.5 ± 2.9	–	–	–	–	–	–	–
19500 kPa	1069.5 ± 3.2	–	1051 ± 2.9	1042.9 ± 3	1031.8 ± 3.1	1020.1 ± 3.3	1006.6 ± 3.5	992.2 ± 3.8	975.4 ± 4
20000 kPa	1069.8 ± 2.9	1062 ± 2.9	1051.5 ± 2.9	1043.2 ± 3.1	1032.2 ± 3.1	1020.5 ± 3.3	1007 ± 3.5	992.5 ± 3.8	975.8 ± 4
